The values below come from patent US10358435B2, “Triazolyl pyrimidinone compounds as PDE2 inhibitors” (Merck Sharp & Dohme Corp., priority 2015, dated 2019).

Molecules are shown by their SMILES.

The test concerns the target human PDE2A1 (Homo sapiens (Human), UniProt O00408). The test is described as follows: IMAP fluorescence polarization assay, human PDE2A1 (PDE selectivity panel). Particulars: for Ki: FAM cAMP 50 nM with 1000 nM cGMP. It counts as biochemical. Here is the method: The activity of the compounds in accordance with the present invention as PDE2 inhibitors may be readily determined using a fluorescence polarization (FP) methodology (Huang, W., et al., J. Biomol Screen, 2002, 7: 215).
Dose-inhibition profiles for each compound were characterized by fitting the mP data to a four-parameter equation given below.
Selectivity for PDE2, as compared to other PDE families, was assessed using the IMAP® technology. Human PDE10A2 enzyme was prepared from cytosolic fractions of transiently transfected HEK cells. All other PDE's were GST Tag human enzyme expressed in insect cells and were obtained from BPS Bioscience (San Diego, Calif.): PDE1A (Cat#60010), human PDE2A1 (Cat#60020), PDE3A (Cat#60030), PDE4A1A (Cat#60040), PDE5A1 (Cat#60050), PDE6C (Cat#60060), PDE7A (Cat#60070), PDE8A1 (Cat#60080), PDE9A2 (Cat#60090), PDE11A4 (Cat#60110).
Assays for PDE 1 through 11 were performed in parallel at room temperature in 384-well microtiter plates with an incubation volume of 20.2 μL. Solutions of test compounds were prepared in DMSO and serially diluted with DMSO to yield 30 μL of each of ten solutions differing by 3-fold in concentration, at 32 serial dilutions per plate. […] A Labcyte POD 810 (Labcyte, Sunnyvale, Calif.) was used to dispense 200 nL from each well of the titration plate to make eleven copies of the assay plate for each titration, one copy for each PDE enzyme. A solution of each enzyme (dilution from aliquots, sufficient to produce 20% substrate conversion) and a separate solution of FAM-labeled cAMP or FAM-labeled cGMP from Molecular Devices (Sunnyvale, Calif., product # R7506 or cGMP#R7508), at a final concentration of 50 nM were made in the assay buffer (10 mM Tris HCl, pH 7.2, 10 mM MgCl2, 0.05% NaN3 0.01% Tween-20, and 1 mM DTT). Note that the substrate for PDE2 is 50 nM FAM cAMP containing 1000 nM of cGMP. The enzyme and the substrate were then added to the assay plates in two consecutive additions of 10 μL and then shaken to mix. The reaction was allowed to proceed at room temperature for 60 minutes. A binding solution was then made from the kit components, comprised of 80% Solution A, 20% Solution B and binding reagent at a volume of 1/600 the total binding solution. The enzymatic reaction was stopped by addition of 60 μL of the binding solution to each well of the assay plate. The plates were sealed and shaken for 10 seconds. The plates were incubated at room temperature for one hour, then the parallel and perpendicular fluorescence was measured using a Tecan Genios Pro plate reader (Tecan, Switzerland). The apparent inhibition constants for the compounds against all 11 PDE's was determined from the parallel and perpendicular fluorescent readings as described for PDE10 FP assay using the following apparent KM values for each enzyme and substrate combination: PDE1A (FAM cGMP) 70 nM, human PDE2A1 (FAM cAMP) 10,000 nM, PDE3A (FAM cAMP) 50 nM, PDE4A1A (FAM cAMP) 1500 nM, PDE5A1 (FAM cGMP) 400 nM, PDE6C (FAM cGMP) 700 nM, PDE7A (FAM cAMP) 150 nM, PDE8A1 (FAM cAMP) 50 nM, PDE9A2 (FAM cGMP) 60 nM, PDE10A2 (FAM cAMP) 150 nM, PDE11A4 (FAM cAMP) 1000 nM. The intrinsic PDE2 inhibitory activity of a compound which may be used in accordance with the present invention may be determined by these assays.
A general note: Polarisation of emitted light reports the rotation of a fluorescent probe.

human PDE2A1, sequence (O00408 other isoform, or with tags, fused parts or gaps): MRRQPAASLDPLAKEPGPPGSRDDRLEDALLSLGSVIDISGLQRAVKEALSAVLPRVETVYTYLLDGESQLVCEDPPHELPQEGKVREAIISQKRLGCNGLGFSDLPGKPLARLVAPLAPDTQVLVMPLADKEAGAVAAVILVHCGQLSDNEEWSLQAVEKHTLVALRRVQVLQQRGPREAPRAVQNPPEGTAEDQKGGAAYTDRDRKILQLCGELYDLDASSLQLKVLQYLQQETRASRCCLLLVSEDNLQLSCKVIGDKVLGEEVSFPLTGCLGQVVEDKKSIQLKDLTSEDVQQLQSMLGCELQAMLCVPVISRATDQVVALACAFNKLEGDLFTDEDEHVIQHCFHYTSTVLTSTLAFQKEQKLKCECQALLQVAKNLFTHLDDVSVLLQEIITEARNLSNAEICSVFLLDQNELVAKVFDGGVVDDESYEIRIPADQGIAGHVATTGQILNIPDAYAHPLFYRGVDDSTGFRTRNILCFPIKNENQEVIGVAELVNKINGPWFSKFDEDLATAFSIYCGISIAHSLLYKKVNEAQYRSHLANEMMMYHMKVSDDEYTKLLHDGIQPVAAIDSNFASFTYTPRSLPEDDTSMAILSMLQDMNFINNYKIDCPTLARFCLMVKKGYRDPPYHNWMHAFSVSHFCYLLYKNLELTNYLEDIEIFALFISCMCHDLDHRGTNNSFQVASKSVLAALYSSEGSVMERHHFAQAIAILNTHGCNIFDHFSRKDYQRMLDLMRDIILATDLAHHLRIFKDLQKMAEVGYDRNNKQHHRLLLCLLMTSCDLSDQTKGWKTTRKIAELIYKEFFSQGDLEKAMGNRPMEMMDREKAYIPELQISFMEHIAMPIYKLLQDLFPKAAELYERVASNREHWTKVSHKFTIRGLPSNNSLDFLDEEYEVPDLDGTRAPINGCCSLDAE

Take `Cc1nc(-c2cn(C(C)(C)c3ccc(C(F)(F)F)cc3C)nn2)cc(=O)[nH]1` [Example 31, 2-methyl-6-(1-(2-(2-methyl-4-(trifluoromethyl)phenyl)propan-2-yl)-1H-1,2,3-triazol-4-yl) pyrimidin-4(3H)-one]: the Ki (commonly a measure of affinity in units of concentration, obtained from inhibition or displacement) was 0.0054 µM. On the same count and under the same terms, the value for `COc1cccc(Cc2nc(-c3nnn4c3CCCC4(C)c3ccc(C(F)(F)F)cc3F)cc(=O)[nH]2)c1` (single isomer, unassigned) [Example 92] was 0.728 µM; that for `Cc1nc(-c2nnn3c2CCCC3(C)c2ccc(C(F)(F)F)cc2F)cc(=O)[nH]1` (single isomer, unassigned) [Example 58, (R)- or (S)-6-(7-(2-fluoro-4-(trifluoromethyl)phenyl)-7-methyl-4,5,6,7-tetrahydro-[1,2,3]triazolo[1,5-a]pyridin-3-yl)-2-methylpyrimidin-4(3H)-one] was 0.0013 µM; that for `Cc1nc(-n2cnc([C@H](C)c3ccc(C(F)(F)F)cc3F)n2)cc(=O)[nH]1` (single isomer, unassigned) [Example 84] was 0.224 µM.

As for `Cc1nc(-c2nnc(C(C)c3ccc(C(F)(F)F)cc3Cl)n2C)cc(=O)[nH]1` (single isomer, unassigned) [Example 67, (R)- or (S)-6-(5-(1-(2-chloro-4-(trifluoromethyl)-phenyl)ethyl)-4-methyl-4H-1,2,4-triazol-3-yl)-2-methylpyrimidin-4(3H)-one], the inhibition (usually the change of the read-out against control, counted positive when it falls) at 3 µM was determined as 17%.

For `Cc1nc(-c2cnn([C@H](C)c3ccc(C(F)(F)F)cc3Cl)n2)cc(=O)[nH]1` (single isomer, unassigned) [Example 1], the inhibition constant Ki is 0.0363 µM. As for `Cc1nc(-n2ncc([C@H](C)c3ccc(C(F)(F)F)cc3Cl)n2)cc(=O)[nH]1` (single isomer, unassigned) [Example 83], the Ki amounted to 0.0042 µM. As for `Cc1nc(-c2cn(C(C)c3ccc(C4CC4)cc3Cl)nn2)cc(=O)[nH]1` (single isomer, unassigned) [Example 25, (R)- or (S)-6-(1-(1-(2-chloro-4-cyclopropylphenyl)ethyl)-1H-1,2,3-triazol-4-yl)-2-methylpyrimidin-4(3H)-one], the Ki was 0.0584 µM.

For the compound `CCC1(c2ccc(C(F)(F)F)cc2)CCCc2c(-c3cc(=O)[nH]c(C)n3)nnn21` (single isomer, unassigned) [Example 56, (R)- or (S)-6-(7-ethyl-7-(4-(trifluoromethyl)phenyl)-4,5,6,7-tetrahydro-[1,2,3]triazolo[1,5-a]pyridin-3-yl)-2-methylpyrimidin-4(3H)-one], the Ki was 0.616 µM.

On to `Cc1nc(-c2nnc(C(C)c3ccc(C(F)(F)F)cc3F)[nH]2)cc(=O)[nH]1` (single isomer, unassigned) [Example 61, (R)- or (S)-6-(5-(1-(2-fluoro-4-(trifluoromethyl)-phenyl)ethyl)-4H-1,2,4-triazol-3-yl)-2-methylpyrimidin-4(3H)-one], for which the Ki amounted to 0.0527 µM. On the same count and under the same terms, the value for `Cc1nc(-c2nnn3c2CCC[C@@]3(C)c2ccc(C(F)(F)F)cc2)cc(=O)[nH]1` (single isomer, unassigned) [Example 55] was 0.232 µM; that for `CCC(c1ccc(C(F)(F)F)cc1F)n1cc(-c2cc(=O)[nH]c(C)n2)nn1` (single isomer, unassigned) [Example 38, (S)- or (R)-6-(1-(1-(2-fluoro-4-(trifluoromethyl)phenyl)propyl)-1H-1,2,3-triazol-4-yl)-2-methylpyrimidin-4(3H)-one] was 0.0105 µM; that for `Cc1nc(-c2nnn3c2CCC[C@]3(C)c2ccc(OC(F)(F)F)cc2)cc(=O)[nH]1` (single isomer, unassigned) [Example 76] was 0.182 µM. `Cc1nc(-c2cn(C(C)c3ccc(C(F)(F)F)c(F)c3F)nn2)cc(=O)[nH]1` (single isomer, unassigned) [Example 22, (S)- or (R)-6-(1-(1-(2,3-difluoro-4-(trifluoromethyl)phenyl)ethyl)-1H-1,2,3-triazol-4-yl)-2-methylpyrimidin-4(3H)-one]: the Ki is 0.0177 µM. Same read-out and setting: under `Cc1nc(-c2ncn(C(C)c3ccc(C(F)(F)F)cc3F)n2)cc(=O)[nH]1` (stereo not shown) [Example 86, 6-(1-(1-(2-Fluoro-4-(trifluoromethyl)phenyl)ethyl)-1H-1,2,4-triazol-3-yl)-2-methylpyrimidin-4(3H)-one] stands 0.167 µM. `Cc1nc(-c2nnn3c2CCCC3c2ccc(C(F)(F)F)cc2F)cc(=O)[nH]1` (single isomer, unassigned) [Example 50, (S)- or (R)-6-(7-(2-fluoro-4-(trifluoromethyl)phenyl)-4,5,6,7-tetrahydro-[1,2,3]triazolo[1,5-a]pyridin-3-yl)-2-methylpyrimidin-4(3H)-one]: the inhibition constant (Ki) was 0.0207 µM.

Consider `Cc1nc(-c2cn(C(C)(C)c3ccc(C4CC4)cc3Cl)nn2)cc(=O)[nH]1` [Example 34, 6-(1-(2-(2-chloro-4-cyclopropylphenyl)propan-2-yl)-1H-1,2,3-triazol-4-yl)-2-methylpyrimdin-4(3H)-one], for which the inhibition constant (Ki) was 0.0049 µM. Same read-out and setting: the value for `Cc1nc(-c2cn(C(C)c3cc(F)c(C(F)(F)F)cc3F)nn2)cc(=O)[nH]1` (single isomer, unassigned) [Example 24, (S)- or (R)-6-(1-(1-(2,5-difluoro-4-(triufluoromethyl)phenyl)ethyl)-1H-1,2,3-triazol-4-yl)-2-methylpyrimidin-4(3H)-one] was 0.0388 µM; that for `Cc1nc(-c2nnn3c2COCC3c2ccc(C(F)(F)F)cc2)cc(=O)[nH]1` (stereo not shown) [Example 53, 2-methyl-6-(7-(4-(trifluoromethyl)phenyl)-6,7-dihydro-4H-[1,2,3]triazolo[5,1-c][1,4]oxazin-3-yl)pyrimidin-4(3H)-one] was 0.0732 µM. On to `Cc1nc(-c2nnc3n2CCC[C@H]3c2ccc(C(F)(F)F)cc2)cc(=O)[nH]1` (mixture of isomers) [Example 71, (R)- and (S)-2-Methyl-6-(8-(4-(trifluoromethyl)phenyl)-5,6,7,8-tetrahydro-[1,2,4]triazolo[4,3-a]pyridin-3-yl)pyrimidin-4(3H)-one], for which the inhibition at 3 µM was 27%. With `Cc1nc(-c2nnn3c2CCC[C@H]3c2ccc(C(F)(F)F)cc2)cc(=O)[nH]1` (mixture of isomers) [Example 47, (R)- and (S)-2-Methyl-6-(7-(4-(trifluoromethyl)phenyl)-4,5,6,7-tetrahydro-[1,2,3]triazolo[1,5-a]pyridin-3-yl)pyrimidin-4(3H)-one], the inhibition at 3 µM worked out at 48%. `Cc1nc(-c2cn(C(c3ccc(C(F)(F)F)cc3F)C3CC3)nn2)cc(=O)[nH]1` (single isomer, unassigned) [Example 41]: the inhibition constant Ki is 0.038 µM. For `Cc1nc(-c2nnc(C(C)c3ccc(C(F)(F)F)cc3Cl)[nH]2)cc(=O)[nH]1` (single isomer, unassigned) [Example 65, (R)- or (S)-6-(5-(1-(2-chloro-4-(trifluoromethyl)-phenyl)ethyl)-4H-1,2,4-triazol-3-yl)-2-methylpyrimidin-4(3H)-one], the inhibition constant Ki stood at 0.0159 µM. Still for that read-out and setting: under `CCc1ccc(C(C)(C)n2cc(-c3cc(=O)[nH]c(C)n3)nn2)c(C)c1` [Example 33, 6-(1-(2-(4-ethyl-2-methylphenyl)propan-2-yl)-1H-1,2,3-triazol-4-yl)-2-methylpyrimidin-4(3H)-one] stands 0.0996 µM. With `COc1cccc(Cc2nc(-c3nnn4c3CCCC4(C)c3ccc(C(F)(F)F)cc3F)cc(=O)[nH]2)c1` (single isomer, unassigned) [Example 91, (S)- or (R)-6-(7-(2-Fluoro-4-(trifluoromethyl)phenyl)-7-methyl-4,5,6,7-tetrahydro-[1,2,3]triazolo[1,5-a]pyridin-3-yl)-2-(3-methoxy-benzyl)pyrimidin-4(3H)-one], the inhibition constant Ki was determined as 0.00056 µM.
